The record followed here is ChEMBL document CHEMBL1201862, “PubChem BioAssay data set” (2004).

Among the test systems are CCRF-CEM; HCC 2998; A549; MOLT-4; NCI-H23; CAKI-1; SF-268; SR; OVCAR-8; MDA-MB-435; OVCAR-5; SN12C; SW-620; NCI-H522; SNB-19; EKVX; LOX IMVI; UO-31; RXF 393.
What all share (assay): NCI anticancer screen, dose series, 48 h

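Five concentrations, 48 hours, 96-well plates. The concentration for 50% growth inhibition is given as GI50.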 Active and inactive are the calls of the source. Cut-off read from the data, not from the text of the source: active = GI50 up to about 1.1 µM and inactive = higher.

Consider `O=C(c1ccccc1)N1CCC(Nc2nccs2)O1` (stereo not given), for which the GI50 with CCRF-CEM, with HCC 2998, with A549, with MOLT-4, in the test on NCI-H23 and in the test on CAKI-1 was > 10 µM (inactive) each time. Besides, the GI50 with SF-268, in the test with SR, in the test with OVCAR-8, in the test on MDA-MB-435, in the test on OVCAR-5 and in the test on SN12C was > 10 µM (inactive) each time. Moreover, the GI50 in the test with SW-620, with NCI-H522, in the test with SNB-19, with EKVX, in the test on LOX IMVI and with UO-31 was > 10 µM (inactive) in each case. For the same compound, the GI50 with RXF 393 was > 10 µM (inactive).
Consider `CC1(C)C=Cc2c(cc(O)c3c(=O)c4cc(Cl)ccc4[nH]c23)O1`, for which the GI50 with CCRF-CEM was 3.08 µM (inactive); in the test with HCC 2998, 3.62 µM (inactive); in the test with A549 it was 3.1 µM (inactive); with MOLT-4 it was 2.54 µM (inactive); in the test on NCI-H23, 2.3 µM (inactive); in the test on CAKI-1, 3.94 µM (inactive). For the same compound, the GI50 with SF-268 was 3.86 µM (inactive); in the test with SR, 3.24 µM (inactive); with OVCAR-8 it was 3.98 µM (inactive); in the test on MDA-MB-435 it was 3.35 µM (inactive); with OVCAR-5, 1.91 µM (inactive); with SN12C it was 3.24 µM (inactive). Further, the GI50 is 3.55 µM (inactive) in the test on SW-620; 3.29 µM (inactive) with NCI-H522; 2.62 µM (inactive) in the test on SNB-19; 0.469 µM (active) with EKVX; 3.29 µM (inactive) in the test on LOX IMVI; 2.16 µM (inactive) in the test on UO-31. Besides, the GI50 with RXF 393 was 3.89 µM (inactive).
Take `Cc1cccc2nc3cccc(C(=O)NCCC[N+](C)(CCCNC(=O)c4cccc5nc6cccc(C)c6nc45)Cc4ccc([N+](=O)[O-])n4C)c3nc12`: the GI50 was 0.94 µM (active) in the test on CCRF-CEM; 11.6 µM (inactive) in the test on HCC 2998; 0.348 µM (active) in the test on A549; 0.377 µM (active) in the test with MOLT-4; > 67.1 µM (inactive) in the test with NCI-H23; 0.895 µM (active) in the test on CAKI-1. Moreover, the GI50 in the test on SR was 0.294 µM (active); in the test on OVCAR-8, 0.49 µM (active); with MDA-MB-435, > 27 µM (inactive); in the test on OVCAR-5 it was 6.68 µM (inactive); in the test with SN12C, 0.839 µM (active); in the test with SW-620, 0.284 µM (active). Further, the GI50 was 4.13 µM (inactive) in the test on NCI-H522; 13.1 µM (inactive) with SNB-19; 2.1 µM (inactive) in the test on EKVX; 0.871 µM (active) in the test on LOX IMVI; 1.04 µM (active) with UO-31; > 100 µM (inactive) with RXF 393.
For `N#CC(NC12CC3CC(CC(C3)C1)C2)c1ccccc1` (stereo not given), the GI50 with CCRF-CEM was 20.8 µM (inactive); in the test on HCC 2998, > 100 µM (inactive); in the test on A549, > 100 µM (inactive); in the test with MOLT-4 it was > 100 µM (inactive); in the test on NCI-H23, > 100 µM (inactive); in the test on CAKI-1, > 100 µM (inactive). Moreover, the GI50 in the test with SF-268, in the test with SR, with OVCAR-8, with MDA-MB-435, with OVCAR-5 and in the test on SN12C was > 100 µM (inactive) each time. Also, the GI50 with SW-620, with NCI-H522, in the test on SNB-19, with EKVX, in the test on LOX IMVI and in the test with UO-31 was > 100 µM (inactive) each time. In addition, in the test on RXF 393, the GI50 is > 100 µM (inactive).
